# Assay results reported in patent US8372967B2, “Compounds and methods for modulating expression of GCCR” (Isis Pharmaceuticals, Inc., priority 2006, dated 2013).
# Strand notation (5' to 3'): a small letter for the sugar, then the base; units joined by * are phosphorothioate-linked, units joined directly phosphodiester-linked; [ ] holds rarer units or linkages, { } end groups; capitals alone tell only the bases. e = 2'-O-(2-methoxyethyl) (MOE); [5mC] = 5-methylcytosine; d = 2'-deoxy (DNA)
# Columns and labels:
# PTP1B mRNA = assay: Dose response for human PTP1B in HuVEC cells, PPS 198 and PPS 3000 (Tables 86, 87); assay type: cell-based
# Experimental: Human vascular endothelial (HuVEC) cells were plated at a density of 5000 cells per well and treated as described herein with nM concentrations of short antisense compound as indicated in Table 86. After the treatment period, RNA was isolated from the cells and PTP1B mRNA levels were measured by quantitative real-time PCR, as described herein. PTP1B mRNA levels were adjusted according to total RNA content as measured by RIBOGREEN®. Two different human PTP1B primer probe sets were used to measure mRNA levels. Results with Primer Probe Set (PPS) 198 are shown in Table 86, and results with Primer Probe Set (PPS) 3000 are shown in Table 87. Results are presented as percent inhibition of PTP1B mRNA expression relative to untreated control cells.
# PCSK9 mRNA = assay type: cell-based, human; conditions: Hep3B cells, 100 nM, relative to untreated control cells; for % Inhib: 0 = no reduction observed
# Experimental: When cells reached appropriate confluency, they were treated with oligonucleotide using LIPOFECTIN® as described. […] Cells were treated and data were obtained in duplicate or triplicate. […] Cells were harvested 16-24 hours after oligonucleotide treatment.
# Prior to quantitative PCR analysis, primer-probe sets specific to the target gene being measured were evaluated for their ability to be “multiplexed” with a GAPDH amplification reaction. After isolation the RNA is subjected to sequential reverse transcriptase (RT) reaction and real-time PCR, both of which are performed in the same well. RT and PCR reagents were obtained from Invitrogen Life Technologies (Carlsbad, Calif.). […] The RT reaction was carried out by incubation for 30 minutes at 48° C. Following a 10 minute incubation at 95° C. to activate the PLATIN 9M® Taq, 40 cycles of a two-step PCR protocol were carried out: 95° C. for 15 seconds (denaturation) followed by 60° C. for 1.5 minutes (annealing/extension).
# 170 μL of RiboGreen® working reagent (RiboGreen® reagent diluted 1:350 in 10 mM Tris-HCl, 1 mM EDTA, pH 7.5) was pipetted into a 96-well plate containing 30 μL purified cellular RNA. The plate was read in a CytoFluor® 4000 (PE Applied Biosystems) with excitation at 485 nm and emission at 530 nm.
# Short antisense compounds targeted to a PCSK9 nucleic acid were tested for their effects on PCSK9 mRNA in vitro. The Isis No, gapmer motif and SEQ ID NO of each short antisense compound are shown again in Table 75. Cultured Hep3B cells were treated with 100 nM of short antisense compound. 5-10-5 MOE gapmers targeted to a PCSK9 nucleic acid were used as positive controls. After the treatment period, RNA was isolated from the cells and PCSK9 mRNA levels were measured by quantitative real-time PCR, as described herein. PCSK9 mRNA levels were adjusted according to total RNA content as measured by RIBOGREEN®. Results are presented in Table 75 as percent inhibition of PCSK9 (% Inhib), relative to untreated control cells.
substance,measurement,setting,value
399102 (eG*eA*dA*dG*dT*d[5mC]*dA*d[5mC]*dT*dG*dG*d[5mC]*eT*eT; antisense) [compound 399102],% Inhibition,"PTP1B mRNA; PPS 198, 1.11 nM",0%
same,% Inhibition,"PTP1B mRNA; PPS 198, 3.33 nM",15%
same,% Inhibition,"PTP1B mRNA; PPS 198, 10.0 nM",62%
same,% Inhibition,"PTP1B mRNA; PPS 198, 30.0 nM",88%
same,% Inhibition,"PTP1B mRNA; PPS 3000, 1.11 nM",0%
same,% Inhibition,"PTP1B mRNA; PPS 3000, 3.33 nM",9%
same,% Inhibition,"PTP1B mRNA; PPS 3000, 10.0 nM",60%
same,% Inhibition,"PTP1B mRNA; PPS 3000, 30.0 nM",87%
399208 (eA*eG*d[5mC]*dT*d[5mC]*dG*d[5mC]*dT*dA*d[5mC]*d[5mC]*dT*e[5mC]*eT; antisense) [compound 399208],% Inhibition,"PTP1B mRNA; PPS 198, 1.11 nM",0%
same,% Inhibition,"PTP1B mRNA; PPS 198, 3.33 nM",37%
same,% Inhibition,"PTP1B mRNA; PPS 198, 10.0 nM",86%
same,% Inhibition,"PTP1B mRNA; PPS 198, 30.0 nM",93%
same,% Inhibition,"PTP1B mRNA; PPS 3000, 1.11 nM",0%
same,% Inhibition,"PTP1B mRNA; PPS 3000, 3.33 nM",47%
same,% Inhibition,"PTP1B mRNA; PPS 3000, 10.0 nM",85%
same,% Inhibition,"PTP1B mRNA; PPS 3000, 30.0 nM",96%
399096 (eT*eG*d[5mC]*dT*d[5mC]*dG*dA*dA*d[5mC]*dT*d[5mC]*d[5mC]*eT*eT; antisense) [compound 399096],% Inhibition,"PTP1B mRNA; PPS 198, 1.11 nM",3%
same,% Inhibition,"PTP1B mRNA; PPS 198, 3.33 nM",30%
same,% Inhibition,"PTP1B mRNA; PPS 198, 10.0 nM",78%
same,% Inhibition,"PTP1B mRNA; PPS 198, 30.0 nM",96%
same,% Inhibition,"PTP1B mRNA; PPS 3000, 1.11 nM",0%
same,% Inhibition,"PTP1B mRNA; PPS 3000, 3.33 nM",23%
same,% Inhibition,"PTP1B mRNA; PPS 3000, 10.0 nM",75%
same,% Inhibition,"PTP1B mRNA; PPS 3000, 30.0 nM",94%
398173 (e[5mC]*dA*dG*d[5mC]*d[5mC]*dT*dG*dG*dG*d[5mC]*dA*e[5mC]) [compound 398173],% Inhibition,"PTP1B mRNA; PPS 198, 1.11 nM",0%
same,% Inhibition,"PTP1B mRNA; PPS 198, 3.33 nM",4%
same,% Inhibition,"PTP1B mRNA; PPS 198, 10.0 nM",80%
same,% Inhibition,"PTP1B mRNA; PPS 198, 30.0 nM",97%
same,% Inhibition,"PTP1B mRNA; PPS 3000, 1.11 nM",0%
same,% Inhibition,"PTP1B mRNA; PPS 3000, 3.33 nM",18%
same,% Inhibition,"PTP1B mRNA; PPS 3000, 10.0 nM",80%
same,% Inhibition,"PTP1B mRNA; PPS 3000, 30.0 nM",90%
399315 (antisense eG*eG*d[5mC]*dA*dA*d[5mC]*dT*dT*d[5mC]*dA*dA*d[5mC]*e[5mC]*eT) [compound 399315],% Inhibition,"PTP1B mRNA; PPS 198, 1.11 nM",0%
same,% Inhibition,"PTP1B mRNA; PPS 198, 3.33 nM",20%
same,% Inhibition,"PTP1B mRNA; PPS 198, 10.0 nM",68%
same,% Inhibition,"PTP1B mRNA; PPS 198, 30.0 nM",88%
same,% Inhibition,"PTP1B mRNA; PPS 3000, 1.11 nM",0%
same,% Inhibition,"PTP1B mRNA; PPS 3000, 3.33 nM",25%
same,% Inhibition,"PTP1B mRNA; PPS 3000, 10.0 nM",71%
same,% Inhibition,"PTP1B mRNA; PPS 3000, 30.0 nM",93%
399173 (eA*eT*dG*d[5mC]*dT*dA*dG*dT*dG*d[5mC]*dA*d[5mC]*eT*eA; antisense) [compound 399173],% Inhibition,"PTP1B mRNA; PPS 198, 1.11 nM",0%
same,% Inhibition,"PTP1B mRNA; PPS 198, 3.33 nM",24%
same,% Inhibition,"PTP1B mRNA; PPS 198, 10.0 nM",63%
same,% Inhibition,"PTP1B mRNA; PPS 198, 30.0 nM",89%
same,% Inhibition,"PTP1B mRNA; PPS 3000, 1.11 nM",0%
same,% Inhibition,"PTP1B mRNA; PPS 3000, 3.33 nM",11%
same,% Inhibition,"PTP1B mRNA; PPS 3000, 10.0 nM",59%
same,% Inhibition,"PTP1B mRNA; PPS 3000, 30.0 nM",92%
400371 (antisense eA*eG*dT*dT*dA*d[5mC]*dA*dA*dA*dA*dG*d[5mC]*eA*eA) [compound 400371],% Inhib,PCSK9 mRNA,0%
400350 (antisense e[5mC]*e[5mC]*d[5mC]*dT*d[5mC]*dA*d[5mC]*d[5mC]*d[5mC]*d[5mC]*d[5mC]*dA*eA*eA) [compound 400350],% Inhibition Range,PCSK9 mRNA,10-20%
same,% Inhib,PCSK9 mRNA,15%
400306 (antisense e[5mC]*eT*dG*dT*d[5mC]*dA*d[5mC]*dA*d[5mC]*dT*dT*dG*e[5mC]*eT) [compound 400306],% Inhibition Range,PCSK9 mRNA,40-50%
same,% Inhib,PCSK9 mRNA,40%
400318 (antisense e[5mC]*e[5mC]*dT*dA*dT*dG*dA*dG*dG*dG*dT*dG*e[5mC]*e[5mC]) [compound 400318],% Inhibition Range,PCSK9 mRNA,20-30%
same,% Inhib,PCSK9 mRNA,26%
400314 (antisense eG*eT*dG*d[5mC]*d[5mC]*d[5mC]*dT*dT*d[5mC]*d[5mC]*d[5mC]*dT*eT*eG) [compound 400314],% Inhibition Range,PCSK9 mRNA,20-30%
same,% Inhib,PCSK9 mRNA,26%
400313 (antisense eG*e[5mC]*dA*dT*d[5mC]*d[5mC]*d[5mC]*dG*dG*d[5mC]*d[5mC]*dG*e[5mC]*eT) [compound 400313],% Inhibition Range,PCSK9 mRNA,10-20%
same,% Inhib,PCSK9 mRNA,10%
400333 (antisense eT*e[5mC]*dA*dG*dG*dG*dA*dA*d[5mC]*d[5mC]*dA*dG*eG*e[5mC]) [compound 400333],% Inhib,PCSK9 mRNA,0%
400322 (antisense eT*eT*d[5mC]*d[5mC]*dG*dA*dA*dT*dA*dA*dA*d[5mC]*eT*e[5mC]) [compound 400322],% Inhib,PCSK9 mRNA,0%
400321 (antisense eT*e[5mC]*d[5mC]*dG*dA*dA*dT*dA*dA*dA*d[5mC]*dT*e[5mC]*e[5mC]) [compound 400321],% Inhib,PCSK9 mRNA,0%
400365 (antisense e[5mC]*eT*d[5mC]*d[5mC]*dG*dG*d[5mC]*dA*dG*d[5mC]*dA*dG*eA*eT) [compound 400365],% Inhibition Range,PCSK9 mRNA,20-30%
same,% Inhib,PCSK9 mRNA,25%
400325 (antisense e[5mC]*e[5mC]*d[5mC]*d[5mC]*dA*dA*dA*dG*dT*d[5mC]*d[5mC]*d[5mC]*e[5mC]*eA) [compound 400325],% Inhib,PCSK9 mRNA,4%
400342 (antisense eG*eT*dG*d[5mC]*dT*dG*dG*dG*dG*dG*dG*d[5mC]*eA*eG) [compound 400342],% Inhib,PCSK9 mRNA,0%
400341 (antisense eG*e[5mC]*dT*dG*dG*dT*d[5mC]*d[5mC]*dT*d[5mC]*dA*dG*eG*eG) [compound 400341],% Inhib,PCSK9 mRNA,0%
400356 (antisense eT*eA*dG*dA*d[5mC]*dA*d[5mC]*d[5mC]*d[5mC]*dT*d[5mC]*dA*e[5mC]*e[5mC]) [compound 400356],% Inhib,PCSK9 mRNA,0%
400303 (antisense eA*eG*dA*dT*dA*d[5mC]*dA*d[5mC]*d[5mC]*dT*d[5mC]*d[5mC]*eA*e[5mC]) [compound 400303],% Inhib,PCSK9 mRNA,0%
400363 (antisense e[5mC]*e[5mC]*dG*dG*d[5mC]*dA*dG*d[5mC]*dA*dG*dA*dT*eG*eG) [compound 400363],% Inhib,PCSK9 mRNA,8%
400348 (antisense eT*eG*dG*dA*dG*d[5mC]*dA*dG*d[5mC]*dT*d[5mC]*dA*eG*e[5mC]) [compound 400348],% Inhib,PCSK9 mRNA,0%
400358 (antisense eA*eT*dG*dG*d[5mC]*dA*dG*d[5mC]*dA*dG*dG*dA*eA*eG) [compound 400358],% Inhibition Range,PCSK9 mRNA,10-20%
same,% Inhib,PCSK9 mRNA,12%
400328 (antisense eA*e[5mC]*dG*dT*dG*dG*dG*d[5mC]*dA*dG*d[5mC]*dA*eG*e[5mC]) [compound 400328],% Inhibition Range,PCSK9 mRNA,10-20%
same,% Inhib,PCSK9 mRNA,13%
400298 (antisense e[5mC]*eA*dT*dG*dG*dG*dG*d[5mC]*dA*dA*d[5mC]*dT*eT*e[5mC]) [compound 400298],% Inhib,PCSK9 mRNA,0%
400370 (antisense eG*e[5mC]*d[5mC]*dG*dG*d[5mC]*dT*d[5mC]*d[5mC]*dG*dG*d[5mC]*eA*eG) [compound 400370],% Inhibition Range,PCSK9 mRNA,10-20%
same,% Inhib,PCSK9 mRNA,13%
400317 (antisense e[5mC]*eT*dA*dT*dG*dA*dG*dG*dG*dT*dG*d[5mC]*e[5mC]*eG) [compound 400317],% Inhib,PCSK9 mRNA,7%
400305 (antisense eG*e[5mC]*d[5mC]*dT*dG*dT*d[5mC]*dT*dG*dT*dG*dG*eA*eA) [compound 400305],% Inhibition Range,PCSK9 mRNA,30-40%
same,% Inhib,PCSK9 mRNA,38%
400357 (antisense eT*eG*dG*d[5mC]*dA*dG*d[5mC]*dA*dG*dG*dA*dA*eG*e[5mC]) [compound 400357],% Inhib,PCSK9 mRNA,0%
400334 (antisense e[5mC]*eT*d[5mC]*dA*dG*dG*dG*dA*dA*d[5mC]*d[5mC]*dA*eG*eG) [compound 400334],% Inhib,PCSK9 mRNA,0%
400335 (antisense e[5mC]*e[5mC]*dT*d[5mC]*dA*dG*dG*dG*dA*dA*d[5mC]*d[5mC]*eA*eG) [compound 400335],% Inhib,PCSK9 mRNA,0%
400346 (antisense eG*eA*dG*d[5mC]*dA*dG*d[5mC]*dT*d[5mC]*dA*dG*d[5mC]*eA*eG) [compound 400346],% Inhib,PCSK9 mRNA,5%
